Experimental findings from EP1068184B1, “N-ARYLOXYETHYLAMINE DERIVATIVES FOR THE TREATMENT OF DEPRESSION” (Wyeth, priority 1998, dated 1999) are described below.

Read-outs that look alike come from different tables or passages of the source.

One assay deals with T1, serotonin transporter (Rattus norvegicus, UniProt P31652).
T1 construct: frontal cortical membranes prepared from male Sprague-Dawley rats; from tissue; host or cells: rat frontal cortex membranes
The experiment in a line: serotonin transporter affinity, 3H-paroxetine binding to frontal cortical membranes. The arrangement: species or system male Sprague-Dawley rats. The method, then: Briefly, frontal cortical membranes prepared from male Sprague-Dawley rats were incubated with ^3H-paroxetine (0.1 nM) for 60 min at 25°C. All tubes also contained either vehicle, test compound (one to eight concentrations), or a saturating concentration of fluoxetine (10 µM) to define specific binding. All reactions are terminated by the addition of ice cold Tris buffer followed by rapid filtration using a Tom Tech filtration device to separate bound from free ^3H-paroxetine.

In assay [1] the target is T2, human 5-HT1A receptor subtype (Homo sapiens, UniProt P08908).
T2 construct: expressed in transfected cells
T2 sequence (P08908 1-422): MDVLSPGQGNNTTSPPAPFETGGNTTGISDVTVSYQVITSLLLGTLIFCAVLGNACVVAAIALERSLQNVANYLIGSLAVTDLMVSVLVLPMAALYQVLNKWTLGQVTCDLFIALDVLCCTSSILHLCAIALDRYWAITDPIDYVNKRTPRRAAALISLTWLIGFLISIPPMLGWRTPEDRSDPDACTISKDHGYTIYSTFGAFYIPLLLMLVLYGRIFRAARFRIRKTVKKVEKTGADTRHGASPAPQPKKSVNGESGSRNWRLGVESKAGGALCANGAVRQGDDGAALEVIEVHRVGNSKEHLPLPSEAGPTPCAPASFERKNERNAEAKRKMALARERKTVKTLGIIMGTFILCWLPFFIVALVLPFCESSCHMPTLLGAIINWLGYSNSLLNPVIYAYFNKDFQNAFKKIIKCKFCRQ
The experiment in a line: 5-HT1A receptor binding assay with [3H]8-OH-DPAT on membranes of 5-HT1A.CHO cells. The conditions noted are these: for Ki: [3H]8-OH-DPAT 1.5 nM, CHO cell membranes; for 5-HT1A (% @1000nM) / 5-HT1A (% @10nM): given instead of a Ki. The procedure:
The PCR cloning of the human 5-HT1A receptor subtype from a human genomic library has been described previously Chanda et al., Mol. Pharmacol., 43:516 (1993). A stable Chinese hamster ovary cell line expressing the human 5-HT1A receptor subtype (5-HT1A.CHO cells) was employed throughout this study. Cells were maintained in DMEM supplemented with 10% foetal calf serum, non-essential amino acids and penicillin/ streptomycin.
Cells were grown to 95-100% confluency as a monolayer before membranes were harvested for binding studies. Cells were gently scraped from the culture plates, transferred to centrifuge tubes, and washed twice by centrifugation (2000 rpm for 10 min., 4°C) in buffer (50 mM Tris; pH 7.5). The resulting pellets were aliquoted and placed at -80°C. On the day of assay, the cells were thawed on ice, and resuspended in buffer. Studies were conducted using [^3H]8-OH-DPAT as the radioligand. The binding assay was performed in 96 well microtiter plates in a final total volume of 250 µL of buffer. Competition experiments were performed by using 7 concentrations of unlabelled drug and a final ligand concentration of 1.5 nM . Non-specific binding was determined in the presence of 10 µM 5HT. Saturation analysis was conducted by using [^3H]8-OH-DPAT at concentrations ranging from 0.3-30 nM. Following a 30 minute incubation at room temperature, the reaction was terminated by the addition of ice cold buffer and rapid filtration using a M-96 Brandel Cell Harvester (Gaithersburg, MD) through a GF/B filter presoaked for 30 minutes in 0.5% polyethyleneimine.

Another assay addresses T3, 5-HT1A cloned receptor (Homo sapiens, UniProt P08908).
T3 construct: expressed in transfected cells
T3 sequence (P08908 1-422): T2 sequence (P08908 1-422)
The experiment in a line: [35S]-GTPγS binding assay on 5-HT1A cloned receptor membrane fragments. The conditions noted are these: maximum agonist response defined by excess 8-OH-DPAT. It is filed as biochemical. The method, then: The [^35S]-GTPγS binding assay was similar to that used by Lazareno and Birdsall, Br. J. Pharmacol. 109:1120 (1993). Briefly, 5-HT1A cloned receptor membrane fragments (as used for 5-HT1A receptor binding assays) were stored at -70 °C until needed. When needed, membranes were rapidly thawed, centrifuged at 40,000 x g for 10 minutes and resuspended at 4 °C for 10 minutes in assay buffer (25 mM HEPES, 3 mM MgCl2, 100 mM NaCI, 1 mM EDTA, 10 uM GDP, […] DTT, pH 8.0). These membranes were then incubated for 30 min at 30 °C with [^35S]GTPgS (1 nM) in the presence of vehicle, test compound (one to eight concentrations), or excess 8-OH-DPAT to define maximum agonist response. All reactions are terminated by the addition of ice cold Tris buffer followed by rapid filtration using a Tom Tech® filtration device to separate bound from free [^35S]GTPgS. Agonists produce an increase in the amount of [^35S]GTPgS bound whereas antagonists produce no increase in binding. Bound radioactivity was counted and analyzed as above.
(In general: GTPγS resists hydrolysis and so accumulates on activated G proteins.)

The mark [2] stands for this setting: 3H-paroxetine 0.1 nM, rat frontal cortical membranes, read-out: ST (Ki).

T1 sequence (P31652 whole entry): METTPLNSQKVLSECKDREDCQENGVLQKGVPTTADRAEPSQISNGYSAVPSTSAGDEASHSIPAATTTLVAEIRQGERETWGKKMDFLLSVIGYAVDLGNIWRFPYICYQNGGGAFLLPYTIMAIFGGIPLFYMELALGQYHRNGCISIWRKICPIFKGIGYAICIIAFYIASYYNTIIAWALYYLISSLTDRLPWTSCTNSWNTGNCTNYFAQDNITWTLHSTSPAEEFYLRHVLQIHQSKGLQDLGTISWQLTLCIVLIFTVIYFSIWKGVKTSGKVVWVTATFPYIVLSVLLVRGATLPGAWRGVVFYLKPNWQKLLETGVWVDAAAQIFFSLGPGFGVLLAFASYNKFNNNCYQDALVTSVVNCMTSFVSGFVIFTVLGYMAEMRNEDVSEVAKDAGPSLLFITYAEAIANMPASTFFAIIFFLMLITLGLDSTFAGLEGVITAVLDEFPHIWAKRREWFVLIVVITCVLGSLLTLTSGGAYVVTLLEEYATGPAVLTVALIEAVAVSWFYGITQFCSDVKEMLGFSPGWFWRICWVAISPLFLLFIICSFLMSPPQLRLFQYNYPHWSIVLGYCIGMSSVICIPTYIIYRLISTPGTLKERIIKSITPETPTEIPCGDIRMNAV

As to `Cn1cc([C@H]2CC[C@H](NCCOc3cc(F)cc4c3OCCC4)CC2)c2cc(C#N)ccc21` [Example 5d, 3-{(1,4-cis)-4-[2-(6-Fluoro-chroman-8-yloxy)-ethylamino]-cyclohexyl}-1-methyl-1H-indole-5-carbonitrile], the values for the Ki (at serotonin transporter (setting [2]); in assay [1]) were 21.4 nM and 24 nM, respectively.

In the case of `OC1(CNCCOc2cccc3[nH]ccc23)CCC(c2c[nH]c3ccc(F)cc23)CC1` (stereo not drawn) [Example 13, (1,4)-4-(5-Fluoro-1H-indol-3-yl)-1-([2-(1H-indol-4-yloxy)-ethylamino]-methyl}-cyclohexanol], the maximum response (Emax) (usually the size of the effect at its maximum, as opposed to the concentration needed) at 5-HT1A cloned receptor came out at 85%.

In the case of `Fc1ccc2[nH]cc([C@H]3CC[C@@H](NCCOc4cccc5[nH]ccc45)CC3)c2c1` [Example 3a], the results for the inhibitory constant (Ki) (at serotonin transporter (setting [2]); in assay [1]) were 26 nM and 147 nM, respectively.

As to `N#Cc1ccc2[nH]cc([C@H]3CC[C@@H](NCCOc4cc(F)cc5c4OCC5)CC3)c2c1` [Example 6a], the Ki (in general, the equilibrium dissociation constant of an inhibitor or competing ligand from its target) on serotonin transporter (setting [2]) worked out at 1.07 nM. In assay [1], the “5-HT1A (% @1000nM)” value amounted to 49%@1000nM.

With `Fc1ccc2[nH]cc([C@H]3CC[C@@H](NCCOc4cccc5c4OCCO5)CC3)c2c1` [Example 4a], the values for the Ki (at serotonin transporter (setting [2]); in assay [1]) were 18 nM and 484 nM, respectively.

As to `Fc1cc(OCCN[C@H]2CC[C@@H](c3c[nH]c4ccc(F)cc43)CC2)c2occc2c1` [Example 7a, [2-(5-Fluoro-benzofuran-7-yloxy)-ethyl]-[(1,4-cis)-4-(5-fluoro-1H -indol-3-yl)-cyclohexyl]-amine], the Ki in assay [1] stood at 146 nM.

As for `COc1ccccc1OCCN[C@H]1CC[C@H](c2c[nH]c3ccc(F)cc32)CC1` [Example 1b, [(trans)-4-(5-Fluoro-1H-indol-3-yl)-cyclohexyl]-[2-(2-methoxy-phenoxy)-ethyl]-amine], in assay [1], the affinity, expressed as Ki, was 22.4 nM.

Consider `Cn1cc([C@H]2CC[C@@H](NCCOc3cc(F)cc4c3OCCC4)CC2)c2cc(C#N)ccc21` [Example 5c, 3-{(1,4-cis)-4-[2-(6-Fluoro-chroman-8-yloxy)-ethylamino]-cyclohexyl}-1-methyl-1H-indole-5-carbonitrile], for which, at serotonin transporter (setting [2]), the Ki stood at 0.53 nM. In addition, the “5-HT1A (% @1000nM)” value in assay [1] was determined as 47%@1000nM.

For the molecule `COc1ccc(F)cc1OCCN[C@H]1CC[C@@H](c2c[nH]c3cc(F)ccc32)CC1` [Example 2a, [(1,4-cis)-4-(6-Fluoro-1H-indol-3-yl)-cyclohexyl]-[2-(5-fluoro-2-methoxy-phenoxy)-ethyl]-amine], the values for the Ki (at serotonin transporter (setting [2]); in assay [1]) were 1.19 nM and 996 nM, respectively.

On to `COc1cc(F)c(F)cc1OCCN[C@H]1CC[C@@H](c2c[nH]c3ccc(F)cc32)CC1` [Example 11a, (1,4-cis)-[2-(4,5-Difluoro-2-methoxy-phenoxy)-ethyl]-[4-(5-fluoro-1H-indol-3-yl)-cyclohexyl]-amine], for which the Ki on serotonin transporter was determined as 1.7 nM. Besides, the “5-HT1A (% @10nM)” value in assay [1] was 0%@10nM. Also, the Emax at 5-HT1A cloned receptor worked out at 0%.

For the molecule `COc1ccccc1OCCNCC1CCC(c2c[nH]c3ccc(C#N)cc23)CC1` (stereo not drawn) [Example 10b, 3-(4-{[2-(Methoxy-phenoxy)-ethylamino]-methyl}-cyclohexyl)-1H-indole-5-carbonitrile], at serotonin transporter (setting [2]), the Ki amounted to 1.53 nM. Besides, the “5-HT1A (% @10nM)” value in assay [1] is listed as 7%@10nM.

Turning to `COc1cc(F)ccc1OCCN[C@H]1CC[C@@H](c2c[nH]c3ccc(F)cc32)CC1` [Example 9a, [(1,4-cis)-4-(5-Fluoro-1H-indol-3-yl)-cyclohexyl]-[2-(4-fluoro-2-methoxy-phenoxy)-ethyl]-amine], the Ki on serotonin transporter (setting [2]) was found to be 1.76 nM. In addition, the “5-HT1A (% @10nM)” value in assay [1] was 16%@10nM. The molecule further yielded an Emax at 5-HT1A cloned receptor of 45%.

Take `COc1cc(S(C)(=O)=O)c(F)cc1OCCN[C@H]1CC[C@H](c2c[nH]c3ccc(F)cc32)CC1` [Example 12, [(1,4-trans)-4-(5-Fluoro-1H-indol-3-yl)-cyclohexyl]-[2-(5-fluoro-4-methanesulfonyl-2-methoxy-phenoxy)-ethyl]-amine]: the Ki at serotonin transporter worked out at 0.47 nM. Besides, the “5-HT1A (% @10nM)” value in assay [1] is reported as 0%@10nM. The molecule also yielded an Emax at 5-HT1A cloned receptor of 0%.

`N#Cc1ccc2[nH]cc([C@H]3CC[C@@H](NCCOc4cc(F)cc5c4OCCC5)CC3)c2c1` [Example 5e, 3-{(1,4-cis)-4-[2-(6-Fluoro-chroman-8-yloxy)-ethylamino]-cyclohexyl}-1H-indole-5-carbonitrile]: the Ki came out at 2.74 nM on serotonin transporter (setting [2]) and 385 nM in assay [1].

In the case of `Fc1cc(OCCN[C@H]2CC[C@H](c3c[nH]c4ccc(F)cc43)CC2)c2occc2c1` [Example 7b, [2-(5-Fluoro-benzofuran-7-yloxy)-ethyl]-[(1,4-trans)-4-(5-fluoro-1H -indol-3-yl)-cyclohexyl]-amine], in assay [1], the Ki turned out to be 18.8 nM.

Regarding `Fc1ccc2c(c1)[nH]cc2[C@H]1CC[C@H](NCCOc2cccc3c2OCCO3)CC1` [Example 4d], the results for the Ki (at serotonin transporter (setting [2]); in assay [1]) were 0.21 nM and 16.7 nM, respectively. The Emax at 5-HT1A cloned receptor came out at 74.8%.

As to `COc1cc(F)ccc1OCCN[C@H]1CC[C@H](c2c[nH]c3ccc(F)cc32)CC1` [Example 9b, [(1,4-trans)-4-(5-Fluoro-1H-indol-3-yl)-cyclohexyl]-[2-(4-fluoro-2-methoxy-phenoxy)-ethyl]-amine], the Ki at serotonin transporter (setting [2]) is 3.28 nM; in assay [1], 78.3 nM. Further, the Emax at 5-HT1A cloned receptor turned out to be 39.5%.

Consider `Fc1ccc2c(c1)[nH]cc2[C@H]1CC[C@@H](NCCOc2cccc3c2OCCO3)CC1` [Example 4c], for which the Ki on serotonin transporter (setting [2]) was 6.37 nM; in assay [1], 353 nM.

For the molecule `N#Cc1ccc2[nH]cc([C@H]3CC[C@H](NCCOc4cc(F)cc5c4OCC5)CC3)c2c1` [Example 6b], the Ki on serotonin transporter (setting [2]) amounted to 1.53 nM; in assay [1], 23.5 nM.

For the molecule `COc1cc(F)c(F)cc1OCCN[C@H]1CC[C@H](c2c[nH]c3ccc(F)cc32)CC1` [Example 11b, (1,4-trans)-[2-(4,5-Difluoro-2-methoxy-phenoxy)-ethyl]-[4-(5-fluoro-1H-indol-3-yl)-cyclohexyl]-amine], the values for the Ki (at serotonin transporter; in assay [1]) were 0.7 nM and 24.9 nM, respectively. This molecule registered an Emax at 5-HT1A cloned receptor of 0%.

As for `Fc1ccc2[nH]cc([C@H]3CC[C@H](NCCOc4cc(Cl)cc5[nH]cnc45)CC3)c2c1` [Example 8a, [2-(6-Chloro-1H-benzoimidazol-4-yloxy)-ethyl]-[(1,4-trans)-4-(5-fluoro-1H-indol-3-yl)-cyclohexyl]-amine], the figures for the Ki (at serotonin transporter (setting [2]); in assay [1]) were 1.6 nM and 12.7 nM, respectively. This molecule also had an Emax on 5-HT1A cloned receptor of 0%.

`COc1ccccc1OCCN[C@H]1CC[C@@H](c2c[nH]c3ccc(F)cc32)CC1` [Example 1a, [(cis)-4-(5-Fluoro-1H-indol-3-yl)-cyclohexyl]-[2-(2-methoxy-phenoxy)-ethyl]-amine] displayed a Ki in assay [1] of 307 nM.

Turning to `Fc1cc2c(c(OCCN[C@H]3CC[C@@H](c4c[nH]c5ccc(F)cc54)CC3)c1)OCCC2` [Example 5a, [2-(6-Fluoro-chroman-8-yloxy)-ethyl]-[(1,4-cis)-4-(5-fluoro-1H -indol-3-yl)-cyclohexyl]-amine], at serotonin transporter (setting [2]), the inhibitory constant (Ki) amounted to 13 nM. The “5-HT1A (% @1000nM)” value in assay [1] worked out at 49%@1000nM.
